Laboratory results as given in patent publication US20190350964A1, “ANTI-CANCER COMPOUNDS AND USES THEREOF” (NATIONAL UNIVERSITY OF SINGAPORE, priority 2016, published 2019).
pIC50: −log10 of the molar value.

Tests used:
[1] = molecular target: T1, PI5P4Kα (Homo sapiens, UniProt P48426); test: Cell-free PI5P4Kα activity assay (ADP-Glo); format: biochemical; conditions: 1 h pre-incubation; PI(5)P 20 μM, ATP 10 μM; read-out: IC50, kinase activity of purified PI5P4Kα in vitro
T1 construct: gift from Daiichi Sankyo Co., Ltd. and Daiichi Sankyo RD Novare Co., Ltd
T1 sequence (P48426 whole entry): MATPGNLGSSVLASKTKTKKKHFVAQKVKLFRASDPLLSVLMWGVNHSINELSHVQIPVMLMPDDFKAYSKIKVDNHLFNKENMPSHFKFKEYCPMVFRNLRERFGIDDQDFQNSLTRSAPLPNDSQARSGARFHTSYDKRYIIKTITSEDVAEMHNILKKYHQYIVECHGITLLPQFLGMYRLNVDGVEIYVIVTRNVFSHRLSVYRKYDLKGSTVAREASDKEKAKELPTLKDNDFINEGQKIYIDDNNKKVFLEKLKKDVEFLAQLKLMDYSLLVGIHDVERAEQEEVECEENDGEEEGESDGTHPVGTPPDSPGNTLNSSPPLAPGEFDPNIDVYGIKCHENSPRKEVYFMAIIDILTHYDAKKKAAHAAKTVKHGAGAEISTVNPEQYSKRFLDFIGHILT
Method: For cell-free PI5P4Kα activity assays, serial dilutions of compounds were pre-incubated with 1 ng of PI5P4Kα (kind gift from Daiichi Sankyo Co., Ltd. and Daiichi Sankyo RD Novare Co., Ltd.) in reaction buffer [50 mM HEPES (pH 7.0), 13 mM MgCl2, 0.005% CHAPS, 0.01% BSA, 2.5 mM DTT] for 1 h at 25° C. DOPS (80 μM, Avanti polar lipids), PI(5)P (20 μM, Echelon) and ATP (10 μM, Sigma-Aldrich) were added and further incubated for 90 min at room temperature. PI5P4Kα activity was measured by recording luminescent signals (Tecan) using an ADP-Glo Kinase Assay (Promega) according to the manufacturer's protocol.

[2] = system: PIK3IP1; test: qRT-PCR of PIK3IP1 mRNA in Ras- or Raf-mutant cancer cell lines; format: cell-based, human; conditions: U0126 and/or SCH772984, 24 h
Method: […] human […] ID NO: 11, [NT] ID NO: 12), human […] ID NO: 13, [NT] ID NO: 14), human […] ID NO: 15, [NT] ID NO: 16) and human PIK3IP1 ([NT] ID NO: 17, [NT] ID NO: 18). The TATA-binding protein (TBP) gene was used for normalization. All PCR reactions were performed in triplicate.

[3] = system: normal and transformed BJ cells; test: a131 SAR analysis: pH3(Ser10) immunoblot, BrdU incorporation, subG1 FACS; format: cell-based, human; set-up: key: Group 1: possess the dual-inhibitory properties of both causing the arrest of normal BJ cells at the G1/S phase and also causing mitotic arrest/catastrophe in transformed BJ cells; Group 2: only cause the arrest of normal BJ cells at the G1/S phase; Group 3: cause mitotic arrest/catastrophe in transformed BJ cells, but do not arrest normal BJ cells at the G1/S phase; Group 4: are inactive or weakly active; conditions: 5 μM, 48 h
Method: (§1) Cell death was assessed via Annexin V and/or PI (propidium iodide) staining according to the manufacturer's instructions (eBioscience). Cell growth arrest was assessed by direct measurement of DNA synthesis through incorporation of the nucleoside analog bromodeoxyuridine (BrdU). Briefly, BrdU (30 μM, Sigma-Aldrich) was added for 2 h before harvesting cells. Cells were subsequently stained with Pacific Blue-conjugated BrdU antibody (Invitrogen) for 1 h followed by PI staining. Stained cells were analyzed by MACSQuant (MACS). Three independent experiments were performed in triplicate. The percentage of Annexin V/PI- or BrdU-positive cells was quantified using Flow Jo software (Becton Dickinson). Where indicated, the combined activity of caspase-3/7 was determined using the caspase-Glo 3/7 Assay Kit (Promega) and normalized to the number of viable cells as determined by MTT assay.
Total cell lysates were prepared with 1% triton lysis buffer [25 mM Tris HCl (pH 8.0), 150 mM NaCl, 1% triton-X100, 1 mM dithiothreitol (DTT), protease inhibitor mix (Complete Mini, Roche) and phosphatase inhibitor (PhosphoStop, Roche)] and subjected to SDS-PAGE. The following antibodies were used for immunoblotting: anti-β-actin (Sigma-Aldrich), anti-cleaved PARP (Abcam, #ab32064), anti-PI5P4Kα (#5527), anti-PI5P4Kβ (#9694), anti-cleaved caspase-3 (#9664), anti-pHistone H3(Ser10) (#3377), anti-pAkt(S473) (#9271), anti-pAkt(T308) (#13038), anti-total Akt (#9272), anti-p70S6K(T389) (#9234), anti-total p70S6K (#9202), anti-pErk (#4370), anti-γ-Histone H2AX (#9718) (Cell signaling) and anti-PIK3IP1 (Proteintech, #16826-1-AP). The secondary antibodies used were sheep anti-mouse IgG HRP and donkey anti-rabbit IgG HRP (Amersham; 1:2000 dilution). Immunoreactive proteins were visualized using ECL reagent (Amersham). Where indicated, intensities of protein bands were quantified by densitometry (Odyssey V3.0), normalized to their loading controls and then calculated as fold expression change relative to DMSO control.

[4] = system: MDA-MB-231 human breast tumor cells; test: MDA-MB-231 tumor xenograft in nude mice; format: in vivo, mouse; conditions: a131 20 mg/kg, b5 40-80 mg/kg, PO or IP twice daily, 15 days
Description: BALB/c athymic female nude mice (nu/nu, 5-7 weeks) (InVivos) were kept under specific pathogen-free (SPF) conditions. The care and use of mice was approved by the Duke-NUS IACUC in accordance with protocol 2015/SHS/1030. HCT15 human colon cancer cells (5×10^6) or MDA-MB-231 human breast cancer cells (4×10^6 with Matrigel) were subcutaneously injected into the flanks of mice. When the mean tumor volume reached 100-300 mm^3 (Day 1), the mice were randomly divided into experimental groups of 6 mice by an algorithm that moves animals around to achieve the best case distribution to assure that each treatment group has similar mean tumor burden and standard deviation. No statistical method was used to predetermine sample size. […] Tumor dimensions were measured using calipers, and tumor volume (mm^3) was calculated using the formula width^2×length/2 in a blinded fashion. […] Images were acquired in 3D-SIM mode using a super resolution microscope (Nikon), and the number of cells with either 2 or mitotic-spindles was quantified (n>50 cells per section, 6-7 sections per treatment). […] For the DAB image, a fixed threshold was used, watershed applied and the number of DAB stained nuclei counted. In all cases, no data or animals were excluded and results are expressed as mean and standard deviation of the mean.

[5] = system: HCT-15 human colon adenocarcinoma cells; test: HCT-15 tumor xenograft in nude mice; format: in vivo, mouse; conditions: for antitumor activity (tumor volume): a131 20 mg/kg, b5 40-80 mg/kg, 12 days, paclitaxel IV
Description: BALB/c athymic female nude mice (nu/nu, 5-7 weeks) (InVivos) were kept under specific pathogen-free (SPF) conditions. The care and use of mice was approved by the Duke-NUS IACUC in accordance with protocol 2015/SHS/1030. HCT15 human colon cancer cells (5×10^6) or MDA-MB-231 human breast cancer cells (4×10^6 with Matrigel) were subcutaneously injected into the flanks of mice. When the mean tumor volume reached 100-300 mm^3 (Day 1), the mice were randomly divided into experimental groups of 6 mice by an algorithm that moves animals around to achieve the best case distribution to assure that each treatment group has similar mean tumor burden and standard deviation. No statistical method was used to predetermine sample size. […] Paclitaxel (Cayman Chemical) was dissolved in ethanol:Tween 80=1:3 (v/v) solution followed by the addition of a 5% glucose solution (final ratio, ethanol:Tween 80:5% glucose=5:15:80) and injected via the tail vain (IV). Tumor dimensions were measured using calipers, and tumor volume (mm^3) was calculated using the formula width^2×length/2 in a blinded fashion. On Day 12 (HCT15) or Day 16 (MDA-MB-231), mice were sacrificed. Tumors were collected, fixed overnight in 4% paraformaldehyde (PFA) and stored in 70% ethanol. For immunostaining, antigens were retrieved from formaldehyde-fixed, paraffin-embedded tumor tissue sections for 30 min by boiling in sodium citrate buffer (pH 6.0) using a microwave histoprocessor (Milestone). Endogenous peroxidase activity in tissue sections was depleted by treatment with 3% hydrogen peroxide (H2O2 in 1×TBS) for 20 min at room temperature. Tumor tissue sections were incubated overnight with anti-β-tubulin (Abcam; 1:100 in 3% BSA/TBS-Tween 20) at 4° C. followed by incubation with goat anti-rabbit FITC-conjugated secondary antibody (Invitrogen; 1:200 in 3% BSA/TBS) for 1 h at 25° C. After dehydration treatment, coverslips were mounted using DAPI mounting medium (Vector). Images were acquired in 3D-SIM mode using a super resolution microscope (Nikon), and the number of cells with either 2 or mitotic-spindles was quantified (n>50 cells per section, 6-7 sections per treatment). For detection of apoptosis using the TUNEL method, the ApopTag Plus Peroxidase In Situ Apoptosis Detection Kit (Millipore) was used for formaldehyde-fixed, paraffin-embedded tumor tissue sections treated with b5 (80 mg/kg, IP) or control vehicle for 12 days. Slide scans were acquired using a MetaSystems Metafer built on a Zeiss Axiolmager Z.2 upright microscope. The system is equipped with a CoolCubel camera and a Zeiss Plan-Neofluar 20×/0.5 Ph2 objective lens. Image acquisition was controlled with Metafer4 software, and stitching was performed with the VSlide software and further processed using the open source software FIJI. A custom macro was used to batch process the images in the following sequence: Gaussian filter, color deconvolution of hematoxylin and DAB, thresholding the hematoxylin image, watershed to separate touching nuclei, and then count the number of hematoxylin-stained nuclei. For the DAB image, a fixed threshold was used, watershed applied and the number of DAB stained nuclei counted. In all cases, no data or animals were excluded and results are expressed as mean and standard deviation of the mean.

[6] = system: normal and transformed BJ cells; test: Crystal violet / MTT viability of isogenic normal and transformed BJ cells; conditions: 72 h; crystal violet and MTT (0.1-40 μM)
[7] = system: normal and transformed BJ cells; test: Chemoprotection: a166 pre-treatment followed by a159, paclitaxel or etoposide; format: cell-based, human; conditions: without a166 pre-treatment
Method: as §1

Compound: COc1cc(/C=C(\C#N)C(=O)c2ccc(O)c(O)c2)cc(I)c1O [I-OMe-AG-538]
- pIC50 [1]: 5.68

Compound: O=C(Nc1ccc2[nH]nc(-c3ccncc3)c2c1)[C@@H]1CCN(CC(=O)N2CCN(c3ccc(-c4ncccn4)cc3)CC2)C1 [SCH772984]
- PIK3IP1 mRNA expression after MEK/ERK inhibition [2]: attenuates Ras- and Raf-mediated suppression of PIK3IP1

Compound: N#CC(=C(/N)Sc1ccccc1N)/C(C#N)=C(\N)Sc1ccccc1N [U0126]
- PIK3IP1 mRNA expression after MEK/ERK inhibition [2]: attenuates Ras- and Raf-mediated suppression of PIK3IP1

Compound: N#C/C(=C\c1cncc2ccccc12)c1c[nH]c2ccccc12 [a132]
- Group (a131 SAR analysis) [3]: Group 4

Compound: N#C/C(=C\c1cccc2cccnc12)c1c[nH]c2ccccc12 [a158]
- Group (a131 SAR analysis) [3]: Group 2

Compound: N#C/C(=C\c1cccc2ncccc12)c1c[nH]c2ccccc12 [a159]
- Group (a131 SAR analysis) [3]: Group 3

Compound: N#C/C(=C\c1cccc2cnccc12)c1c[nH]c2ncccc12 [a167]
- Group (a131 SAR analysis) [3]: Group 4

Compound: N#C/C(=C\c1cccc2cnccc12)c1nc2ccccc2[nH]1 [a169]
- Group (a131 SAR analysis) [3]: Group 4

Compound: CN1CCN(CC(=O)n2cc(/C(C#N)=C/c3cccc4cnccc34)c3ccccc32)CC1 [b5, (Z)-3-(isoquinolin-5-yl)-2-(1-(2-(4-methylpiperazin-1-yl)acetyl)-1H-indol-3-yl)acrylonitrile]
- Group (a131 SAR analysis) [3]: Group 1
- antitumor activity (tumor volume) [4]: marked antitumor efficacies
- cancer cell death in tumor sections (TUNEL staining) ([5]; HCT-15 tumor sections, Day 12, b5 80 mg/kg IP): cancer cell death as determined by TUNEL staining
- antitumor activity (tumor volume) ([5]; PO or IP twice daily): marked antitumor efficacies
- body weight loss ([5]; xenograft-bearing mice, PO or IP twice daily): without any body weight loss

Compound: CC(=O)NCCC(=O)n1cc(/C(C#N)=C/c2cccc3cnccc23)c2ccccc21 [b9]
- Group (a131 SAR analysis) [3]: Group 1

Compound: N#C/C(=C\c1cccc2cnccc12)c1c[nH]c2ccc(OCCCN3CCCC3)cc12 [b12]
- Group (a131 SAR analysis) [3]: Group 2

Compound: COCCOc1ccc2[nH]cc(/C(C#N)=C/c3cccc4cnccc34)c2c1 [b16]
- Group (a131 SAR analysis) [3]: Group 2

Compound: CN1CCN(C(=O)Cn2cc(/C(C#N)=C/c3cccc4cnccc34)c3ccccc32)CC1 [b94]
- Group (a131 SAR analysis) [3]: Group 2

Compound: COC(=O)Nc1nc2ccc(C(=O)c3cccs3)cc2[nH]1 [nocodazole]
- selective killing of transformed versus normal BJ cells (cell viability) [6]: showed minimal selectivity

Compound: CC(=O)O[C@H]1C(=O)[C@@]2(C)[C@H]([C@H](OC(=O)c3ccccc3)[C@]3(O)C[C@H](OC(=O)[C@H](O)[C@@H](NC(=O)c4ccccc4)c4ccccc4)C(C)=C1C3(C)C)[C@]1(OC(C)=O)CO[C@@H]1C[C@@H]2O [paclitaxel]
- selective killing of transformed versus normal BJ cells (cell viability) [6]: showed minimal selectivity
- antitumor activity (tumor volume) ([5]; PO or IP twice daily): did not show significant antitumor activity
- selectivity against transformed BJ cells, treatment alone [7]: showed minimal selectivity against transformed BJ cells
